Source: ChEMBL document CHEMBL1201862, “PubChem BioAssay data set” (2004)
Calls of active or inactive are those of the source.

How the values were obtained:
[1] = molecular target: T1, Apoptotic protease-activating factor 1 (Homo sapiens, UniProt O14727); type: functional
T1 sequence (O14727 whole entry): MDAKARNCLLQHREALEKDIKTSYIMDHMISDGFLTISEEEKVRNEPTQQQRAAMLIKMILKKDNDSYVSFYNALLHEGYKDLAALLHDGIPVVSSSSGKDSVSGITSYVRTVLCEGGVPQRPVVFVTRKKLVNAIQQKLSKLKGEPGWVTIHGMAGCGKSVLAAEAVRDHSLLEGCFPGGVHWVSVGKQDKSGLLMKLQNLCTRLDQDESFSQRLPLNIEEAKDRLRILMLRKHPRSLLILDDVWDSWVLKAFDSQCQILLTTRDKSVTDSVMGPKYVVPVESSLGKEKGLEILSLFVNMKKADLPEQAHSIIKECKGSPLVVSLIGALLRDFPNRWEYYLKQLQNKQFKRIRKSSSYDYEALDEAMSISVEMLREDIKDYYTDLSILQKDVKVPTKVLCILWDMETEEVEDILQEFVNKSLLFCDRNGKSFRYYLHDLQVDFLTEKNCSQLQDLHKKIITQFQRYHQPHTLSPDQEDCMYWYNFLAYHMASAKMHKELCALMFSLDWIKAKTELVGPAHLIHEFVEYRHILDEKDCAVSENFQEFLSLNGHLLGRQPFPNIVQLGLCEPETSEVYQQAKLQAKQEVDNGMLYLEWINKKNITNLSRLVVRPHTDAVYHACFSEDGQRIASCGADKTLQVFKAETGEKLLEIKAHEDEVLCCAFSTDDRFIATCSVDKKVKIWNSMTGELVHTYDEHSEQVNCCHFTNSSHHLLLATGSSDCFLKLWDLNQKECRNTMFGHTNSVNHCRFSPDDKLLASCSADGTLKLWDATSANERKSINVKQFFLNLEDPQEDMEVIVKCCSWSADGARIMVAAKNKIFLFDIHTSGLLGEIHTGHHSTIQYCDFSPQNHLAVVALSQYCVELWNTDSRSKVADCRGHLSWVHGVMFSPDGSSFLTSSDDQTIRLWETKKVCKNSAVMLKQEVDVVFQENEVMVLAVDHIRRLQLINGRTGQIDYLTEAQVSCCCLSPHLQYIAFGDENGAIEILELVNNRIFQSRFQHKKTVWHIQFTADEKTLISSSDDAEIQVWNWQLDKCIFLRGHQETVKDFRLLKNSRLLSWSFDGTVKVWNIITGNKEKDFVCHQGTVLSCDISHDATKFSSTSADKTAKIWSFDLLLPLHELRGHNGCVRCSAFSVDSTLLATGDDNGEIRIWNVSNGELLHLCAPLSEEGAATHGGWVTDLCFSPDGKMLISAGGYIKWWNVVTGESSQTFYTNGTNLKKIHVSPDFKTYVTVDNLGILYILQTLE

[2] = Luminescence-based dose response cell-based high throughput screening assay for cytotoxic compounds using the IEC-6 intestinal epithelial cell line. [Related pubchem assays: 1858 (Summary AID.), 1825 (Counterscreen.), 1907 (Confirmation screen.)]; type: functional
Protein RecA = molecular target: T2, Protein RecA (Mycobacterium tuberculosis, UniProt P9WHJ3); experiment: Fluorescence Cell-Free Homogeneous Dose Retest to Identify Inhibitors of RecA-Intein Splicing Activity. [Related pubchem assays (depositor defined):AID2097, AID2223, AID489010, AID492950]; type: functional
T2 sequence (P9WHJ3 whole entry): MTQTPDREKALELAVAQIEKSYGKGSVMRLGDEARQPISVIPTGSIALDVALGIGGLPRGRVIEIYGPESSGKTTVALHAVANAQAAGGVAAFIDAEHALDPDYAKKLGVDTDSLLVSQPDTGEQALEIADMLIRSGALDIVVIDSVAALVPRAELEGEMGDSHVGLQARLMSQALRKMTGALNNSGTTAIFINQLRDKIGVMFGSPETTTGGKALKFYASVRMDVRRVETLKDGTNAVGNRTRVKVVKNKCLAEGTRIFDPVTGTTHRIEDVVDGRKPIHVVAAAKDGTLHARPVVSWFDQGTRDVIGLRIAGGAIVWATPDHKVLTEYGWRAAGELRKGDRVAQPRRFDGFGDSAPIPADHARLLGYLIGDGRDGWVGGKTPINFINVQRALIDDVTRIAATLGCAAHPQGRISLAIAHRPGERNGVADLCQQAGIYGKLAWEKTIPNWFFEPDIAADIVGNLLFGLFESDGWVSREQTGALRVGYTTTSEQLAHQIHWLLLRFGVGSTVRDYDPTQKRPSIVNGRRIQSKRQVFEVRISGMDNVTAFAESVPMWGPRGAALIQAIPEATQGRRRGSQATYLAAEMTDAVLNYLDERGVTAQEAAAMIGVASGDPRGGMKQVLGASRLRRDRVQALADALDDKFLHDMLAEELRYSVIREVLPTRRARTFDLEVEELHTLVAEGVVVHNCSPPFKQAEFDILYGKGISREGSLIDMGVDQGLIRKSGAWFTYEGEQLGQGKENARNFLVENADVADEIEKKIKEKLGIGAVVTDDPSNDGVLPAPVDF

[3] = HepG2 cell cytotoxicity, dose response, cytotoxicity control for Shn3 inhibitor project, CellTiter-Glo, cherry-picked (AID 624134); type: functional, cell-based
[4] = molecular target: T3, Replicative DNA helicase DnaB (Mycobacterium tuberculosis, UniProt P9WMR3); experiment: DnaB intein splicing inhibitors, dose response, biochemical, cell-free fluorescence (AID 449749); type: functional
T3 sequence (P9WMR3 whole entry): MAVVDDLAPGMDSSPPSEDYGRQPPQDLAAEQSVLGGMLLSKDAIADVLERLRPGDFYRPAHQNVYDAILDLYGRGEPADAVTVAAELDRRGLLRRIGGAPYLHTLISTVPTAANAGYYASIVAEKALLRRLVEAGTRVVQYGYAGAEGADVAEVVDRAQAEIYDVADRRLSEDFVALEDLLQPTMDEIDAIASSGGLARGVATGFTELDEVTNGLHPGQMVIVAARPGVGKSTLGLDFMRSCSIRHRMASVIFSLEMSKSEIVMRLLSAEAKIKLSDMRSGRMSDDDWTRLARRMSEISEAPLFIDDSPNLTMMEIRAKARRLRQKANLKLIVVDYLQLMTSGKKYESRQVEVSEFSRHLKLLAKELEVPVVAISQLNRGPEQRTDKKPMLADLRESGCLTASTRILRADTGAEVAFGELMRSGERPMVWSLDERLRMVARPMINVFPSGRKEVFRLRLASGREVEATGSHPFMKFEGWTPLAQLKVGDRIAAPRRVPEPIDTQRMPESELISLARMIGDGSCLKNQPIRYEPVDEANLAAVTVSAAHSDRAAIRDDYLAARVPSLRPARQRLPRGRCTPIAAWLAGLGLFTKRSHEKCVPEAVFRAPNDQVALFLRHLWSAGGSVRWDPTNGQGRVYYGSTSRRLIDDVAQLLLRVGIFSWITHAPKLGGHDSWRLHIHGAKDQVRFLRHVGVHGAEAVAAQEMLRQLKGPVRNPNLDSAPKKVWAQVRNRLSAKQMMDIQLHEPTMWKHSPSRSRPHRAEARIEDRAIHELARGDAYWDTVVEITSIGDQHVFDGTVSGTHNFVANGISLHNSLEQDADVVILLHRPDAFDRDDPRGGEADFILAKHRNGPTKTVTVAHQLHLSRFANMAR

SMILES	IC50 [1]	IC50 [2]	EC50 (Protein RecA)	AC50 [3]	AC50 [4]
O=C(c1ccccc1)c1coc2c1C(=O)c1ccccc1C2=O	15 µM (active)				
CCOC(=O)c1c(C)[nH]c2c1-c1ccccc1C(=O)C2=O		0.421 µM (active)	1.82 µM (active)	3.96 µM (active)	1.34 µM (active)
CCOC(=O)C1=C(c2ccccc2)N=C(N)NC1c1ccc(OCc2ccc(Cl)cc2)c(OC)c1 (centres undefined)	14.6 µM (active)		14.3 µM (active)		8.68 µM (active)
COc1ccc2c(c1)CCC(/C=N/c1ccc3c(c1)OCO3)=C2O	17.4 µM (active)				
CCOC(=O)c1c(C)oc2c1c(/C=N/CCC(=O)O)c(O)c1ccccc12	12.3 µM (active)		0.39 µM (active)		> 380 µM (inactive)
CC(=O)NC(c1ccc2ccccc2c1)c1ccc2cccnc2c1O (centres undefined)		1.05 µM (active)		0.867 µM (active)	
